Test results from US20070087009A1, “Immunostimulant composition comprising at least one toll-like receptor 7 or toll-like receptor 8 agonist and a toll-like receptor 4 agonist” (SANOFI PASTEUR, priority 2003, published 2007).

Tests used:
BALB/c mice = experiment: Immunization test on mice: specific IgG1 and IgG2a by ELISA; assay type: in vivo; conditions: Tat vaccine compositions; level and dispersion of the results between mice
Protocol: 5. Immunization Test on Mice.
There are available 4 groups of 6 female BALB/c mice 8 weeks old to which one of the compositions prepared in example 4 is injected subcutaneously at the rate of a dose of 200 μl per mouse; the injections are performed on D0 and at D21.
Blood samples are collected at the retro-orbital sinus at D14 for assessing the primary response and at D32 for the secondary response. The determination of the level of specific IgG1 and IgG2a is carried out by virtue of the standard ELISA tests.
The results obtained as regards the humoral responses are summarized in the table below and in FIGS. 1 to 4, where the IgG levels are expressed as arbitrary ELISA units (log10).
For each group of mice, the value indicated in the table is the mean geometric titer of the values obtained for each of the mice.

[1] = system: dendritic cells derived from human monocytes; experiment: Stimulation of human cells in vitro: maturation markers by flow cytometry; assay type: cell-based; conditions: 2 days culture; DPPC liposomes, R-848 2.96 μg/ml, ER804057 0.1 μg/ml; mean of 4 donors
Protocol: (§1) The capacity of the compositions according to the invention to induce the maturation of dendritic cells derived from human monocytes in vitro is evaluated for 4 independent donors. The monocytes are obtained from peripheral blood mononuclear cells and are cultured for 5-6 days in the presence of IL4 and of GM-CSF. […] There are then carried out a phenotype analysis by flow cytometry, making it possible to measure the expression of the maturation markers CD25, CD80 and CD83, and an ELISA measurement of the cytokines (TNF-α, IL6 and IL12p70) secreted by these cells. The results indicated in the tables below represent the mean values calculated for the 4 donors: […]

[2] = system: dendritic cells derived from human monocytes; experiment: Stimulation of human cells in vitro: ELISA of secreted cytokines; assay type: cell-based; conditions: 2 days culture; DPPC liposomes, R-848 2.96 μg/ml, ER804057 0.1 μg/ml; mean of 4 donors
Protocol: as §1

mice = conditions: ovalbumin as antigen; cited from earlier work
Toll-like 7 receptor = molecular target: T1, Toll-like 7 receptor (Homo sapiens, UniProt Q9NYK1); conditions: cited from earlier work
T1 sequence (Q9NYK1 27-1049): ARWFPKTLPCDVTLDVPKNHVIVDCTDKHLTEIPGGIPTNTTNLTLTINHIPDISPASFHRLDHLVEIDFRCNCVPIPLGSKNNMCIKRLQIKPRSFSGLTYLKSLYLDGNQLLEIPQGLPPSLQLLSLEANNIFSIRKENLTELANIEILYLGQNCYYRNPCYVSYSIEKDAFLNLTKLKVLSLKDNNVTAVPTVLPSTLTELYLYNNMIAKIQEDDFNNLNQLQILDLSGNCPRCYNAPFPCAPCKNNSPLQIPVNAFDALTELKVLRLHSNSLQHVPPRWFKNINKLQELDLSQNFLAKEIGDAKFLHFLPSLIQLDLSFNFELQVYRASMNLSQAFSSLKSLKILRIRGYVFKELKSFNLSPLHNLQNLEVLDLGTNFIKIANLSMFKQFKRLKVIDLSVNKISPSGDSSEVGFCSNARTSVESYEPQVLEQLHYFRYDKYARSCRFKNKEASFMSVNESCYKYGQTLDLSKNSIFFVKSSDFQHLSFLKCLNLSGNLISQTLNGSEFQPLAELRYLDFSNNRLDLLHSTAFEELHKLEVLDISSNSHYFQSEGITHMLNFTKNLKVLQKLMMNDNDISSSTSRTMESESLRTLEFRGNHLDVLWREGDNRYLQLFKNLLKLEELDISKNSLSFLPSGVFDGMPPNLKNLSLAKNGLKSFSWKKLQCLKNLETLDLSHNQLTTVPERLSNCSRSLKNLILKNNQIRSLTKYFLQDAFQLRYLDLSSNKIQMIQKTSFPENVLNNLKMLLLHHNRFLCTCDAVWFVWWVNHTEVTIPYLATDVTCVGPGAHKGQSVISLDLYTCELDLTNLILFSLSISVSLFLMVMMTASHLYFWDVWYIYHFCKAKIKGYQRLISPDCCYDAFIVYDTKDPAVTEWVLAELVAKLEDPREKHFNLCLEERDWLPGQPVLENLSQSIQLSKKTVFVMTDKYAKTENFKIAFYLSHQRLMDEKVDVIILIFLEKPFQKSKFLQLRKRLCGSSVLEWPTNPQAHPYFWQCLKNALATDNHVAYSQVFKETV

Toll-like 8 receptor = molecular target: T2, Toll-like 8 receptor (Homo sapiens, UniProt Q9NR97); conditions: cited from earlier work
T2 sequence (Q9NR97 27-1041): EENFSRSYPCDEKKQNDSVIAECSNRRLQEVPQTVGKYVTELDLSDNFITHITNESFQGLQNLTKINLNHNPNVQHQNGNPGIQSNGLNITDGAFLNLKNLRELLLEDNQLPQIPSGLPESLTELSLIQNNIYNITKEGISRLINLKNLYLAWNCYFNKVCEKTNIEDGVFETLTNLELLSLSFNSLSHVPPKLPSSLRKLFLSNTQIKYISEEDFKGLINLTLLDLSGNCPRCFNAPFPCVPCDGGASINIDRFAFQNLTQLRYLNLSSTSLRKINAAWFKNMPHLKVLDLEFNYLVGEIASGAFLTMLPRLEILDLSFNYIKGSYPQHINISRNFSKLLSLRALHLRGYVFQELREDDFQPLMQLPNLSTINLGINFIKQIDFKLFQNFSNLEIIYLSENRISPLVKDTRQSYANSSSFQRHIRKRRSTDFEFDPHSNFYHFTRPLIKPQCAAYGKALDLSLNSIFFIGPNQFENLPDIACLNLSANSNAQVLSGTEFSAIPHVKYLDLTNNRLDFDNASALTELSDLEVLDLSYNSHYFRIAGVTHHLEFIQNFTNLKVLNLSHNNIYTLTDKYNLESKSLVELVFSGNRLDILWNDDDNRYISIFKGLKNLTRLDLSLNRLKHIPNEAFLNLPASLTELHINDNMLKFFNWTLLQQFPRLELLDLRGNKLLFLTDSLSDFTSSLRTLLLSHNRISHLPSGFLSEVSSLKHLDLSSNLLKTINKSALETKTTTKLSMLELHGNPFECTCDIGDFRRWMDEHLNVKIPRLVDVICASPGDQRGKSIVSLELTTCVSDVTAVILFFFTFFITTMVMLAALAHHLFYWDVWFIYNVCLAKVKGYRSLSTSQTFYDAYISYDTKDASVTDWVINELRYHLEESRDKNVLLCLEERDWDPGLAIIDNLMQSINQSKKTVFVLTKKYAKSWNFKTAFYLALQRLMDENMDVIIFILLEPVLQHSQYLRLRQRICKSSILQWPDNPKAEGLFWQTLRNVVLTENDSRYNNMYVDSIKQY

| Structure (SMILES) | IgG2a response obtained after the injection of the booster, individual mice (FIGS. 1 to 4) (BALB/c mice) | Percentage of cells expressing the markers CD25 [1] | Percentage of cells expressing the markers CD80 [1] | Percentage of cells expressing the markers CD83 [1] | Quantity of cytokines IL 6 [2] | Quantity of cytokines IL12p70 [2] | Quantity of cytokines TNF-α [2] | adjuvant type (mice) | activation of cells via the Toll-like 7 receptor (Toll-like 7 receptor) | activation of cells via the Toll-like 8 receptor (Toll-like 8 receptor) |
| --- | --- | --- | --- | --- | --- | --- | --- | --- | --- | --- |
| CCCCCCCCCCCC(=O)CC(=O)N[C@H](COCC[C@@H](CCCCCCC)OC(=O)CCCCCCCCCCC)COP(=O)(O)OCCNC(=O)NCCOP(=O)(O)OC[C@@H](COCC[C@@H](CCCCCCC)OC(=O)CCCCCCCCCCC)NC(=O)CC(=O)CCCCCCCCCCC [ER804057, (1R,6R,22R,27R)-1,27-diheptyl-1,27-bisdodecanoyl-9,19-dihydroxy-9,19-dioxido-14-oxo-6,22-bis[(1,3-dioxotetradecyl)amino]-4,8,10,18,20,24-hexaoxa-13,15-diaza-9,19-diphosphoheptacosan] | on average satisfactory | 35% | 46% | 15% | 8349 pg/mL | 22 pg/mL | 393 pg/mL |  |  |  |
| CCOCc1nc2c(N)nc3ccccc3c2n1CC(C)(C)O [R-848, 4-amino-2-ethoxymethyl-α,α-dimethyl-1-H-imidazo[4,5c]quinoline-1-ethanol] | on average satisfactory | 25% | 34% | 19% | 8263 pg/mL | 288 pg/mL | 1727 pg/mL | adjuvant of the TH1 type | activates the cells | activates the cells |
